The text below walks through data of patent publication EP0010299A1, “Pharmaceutical composition useful for the treatment of hypercholesteremia” (Merck & Co., Inc., priority 1978, dated 1980).

In experiment [1] the test system is HMG-CoA reductase. Conditions: fed rats three hours following the administration; Bensch et al. 1978; cited from earlier work.
Experiment [2] concerns serum sterol levels. As to conditions: Bensch et al. 1978, cited from earlier work.
Experiment [3] concerns plasma cholesterol. As to the kind of experiment: Combination of compound (II) with cholestyramine in dogs, plasma cholesterol. The class given is in vivo, Male beagles. On the procedure:
Male beagles, ranging in weight from 7 to 14 kg. (average 11 kg.), were fed a semi-synthetic diet six weeks prior to the start of the experiment and serum cholesterol levels determined colorimetrically each week in order to obtain base-line values for each dog. At the start of the treatment, animals were divided into three treatment groups. Group A (4 dogs) received 25 mg./kg./day of compound (II) mixed in the diet. Group B (4 dogs) received 12 g./dog/day of cholestyramine mixed' in the diet. Group C (5 dogs) was the untreated control. Treatment was for four weeks, and plasma cholesterol was determined two times per week. After four weeks a combination of compound (II) and cholestyramine was given to dogs in Groups A and B mixed in the diet at 25 mg./kg. and 12 g./dog/day respectively for an additional four weeks. Cholesterol levels were detorminod two times per week during this period.

Experiment [4] deals with T1, HMG-CoA reductase (Rattus norvegicus, UniProt P51639).
T1 sequence (P51639 1-887): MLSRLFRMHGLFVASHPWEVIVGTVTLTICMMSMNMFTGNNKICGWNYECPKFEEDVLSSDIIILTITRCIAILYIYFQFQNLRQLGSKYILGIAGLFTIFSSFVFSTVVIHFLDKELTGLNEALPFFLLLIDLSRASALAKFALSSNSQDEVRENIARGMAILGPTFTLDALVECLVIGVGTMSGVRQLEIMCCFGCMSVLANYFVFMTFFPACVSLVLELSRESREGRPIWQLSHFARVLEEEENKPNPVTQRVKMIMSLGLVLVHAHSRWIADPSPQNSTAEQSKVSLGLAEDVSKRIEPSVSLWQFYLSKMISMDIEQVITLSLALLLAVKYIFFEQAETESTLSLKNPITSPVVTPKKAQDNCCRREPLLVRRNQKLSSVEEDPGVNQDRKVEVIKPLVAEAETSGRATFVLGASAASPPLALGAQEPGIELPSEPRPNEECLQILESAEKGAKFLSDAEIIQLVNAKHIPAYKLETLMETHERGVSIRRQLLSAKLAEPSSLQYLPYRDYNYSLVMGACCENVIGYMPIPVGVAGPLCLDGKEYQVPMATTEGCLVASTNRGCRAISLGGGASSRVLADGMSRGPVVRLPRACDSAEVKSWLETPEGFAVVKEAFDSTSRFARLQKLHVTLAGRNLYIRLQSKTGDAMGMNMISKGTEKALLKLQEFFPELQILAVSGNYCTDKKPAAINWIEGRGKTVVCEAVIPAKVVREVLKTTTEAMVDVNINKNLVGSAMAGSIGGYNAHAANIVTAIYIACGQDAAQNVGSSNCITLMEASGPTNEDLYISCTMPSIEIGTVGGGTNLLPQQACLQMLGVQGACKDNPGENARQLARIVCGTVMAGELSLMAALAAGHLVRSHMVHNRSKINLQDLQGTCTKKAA
Conditions: reductase enzyme; no unit printed (molar concentration); read-out: ED50 in the inhibition test; cited from earlier work.

For experiment [5], the system named is serum cholesterol. As to conditions: acutely treated rat; Endo et al. 1976; cited from earlier work.
The mark [6] stands for this setting: Group A average (4 dogs), compound (II) 25 mg./kg./day mixed in the diet, 4 weeks.
Setting [7] is: Group A, individual dogs, compound (II) 25 mg./kg./day mixed in the diet, 4 weeks.

“And” between values parts separate entries of the source, which are not always exact repeats. Equal entries are not always repeated.

On to `CCC(C)C(=O)OC1CCC=C2C=CC(C)C(CCC3CC(O)CC(=O)O3)C21` (centres unmarked) [compound (II), 1,2,3,7,8,8a-hexahydro-7-methyl-8-[2-(3,4,5,6-tetra-hydro-4-hydroxy-6-oxo-2H-pyran-2-yl]ethyl)-1-naphthyl 2-methyl butanoate], for which, in experiment [1], the HMG-CoA reductase result is reported as “marked increase”. Besides, in experiment [2], the “liver or liver microsomal cholesterol concentration” value is “no change”. The “effect on serum sterol levels” value in experiment [2] (compared with fed or fasted controls) is on record as “no effect”. For the same molecule, in experiment [3] (Fig. 1, Group A, 25 mg./kg./day of compound (II)), the “reduction in plasma cholesterol level plateauing by four weeks” value is on record as 36 % of control. For the same molecule, in experiment [3] (setting [6]), the “PLASMA CHOLESTEROL, 4 Weeks, % change from Start, average” value is on record as -35.6% and the “PLASMA CHOLESTEROL, 4 Weeks, average” value stood at 82.5 mg/dL. Further, in experiment [3] (setting [7]), the “PLASMA CHOLESTEROL, 4 Weeks” value was 76 mg./dl and 70 mg./dl and 92 mg./dl (2×); the “PLASMA CHOLESTEROL, 4 Weeks, % change from Start” value was -36.7% and -30.7% and -40.4% and -34.3%. The “decrease of plasma cholesterol, average” value in experiment [3] (four weeks single agent in the diet: compound (II) 25 mg./kg. (Group A), cholestyramine 12 g./dog/day (Group B)) came to 35.6%. In addition, in experiment [4], the IC50 was about 10 nM. In addition, the serum cholesterol levels result in experiment [5] was “reduced”.
